Source: ChEMBL document CHEMBL1201861, “Genomics of Drug Sensitity in Cancer screening data, Wellcome Trust Sanger Institute”

Assays:
Test in all cases: cells
Type in all cases: functional, cell-based
Conditions in all cases: Homo sapiens
[1] = system: HT-144
Description: SANGER: Inhibition of human HT-144 cell growth in a cell viability assay.

[2] = system: MZ7-mel;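 also: growth inhibition of human MZ7-mel cells, measured by a cell viability assay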
Description: SANGER: Inhibition of human MZ7-mel cell growth in a cell viability assay.

[3] = system: MFM-223
Description: SANGER: Inhibition of human MFM-223 cell growth in a cell viability assay.

[4] = system: SBC-1;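 also: cell viability assay measuring growth inhibition of the SBC-1 cell line, IC50 being the concentration that halves growth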
Description: SANGER: Inhibition of human SBC-1 cell growth in a cell viability assay.

[5] = system: MZ2-MEL;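 also: growth inhibition of MZ2-MEL cells read out with a cell viability assay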
Description: SANGER: Inhibition of human MZ2-MEL cell growth in a cell viability assay.

[6] = system: LAMA-84;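 also: growth inhibition of LAMA-84 cells, read out with a cell viability assay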
Description: SANGER: Inhibition of human LAMA-84 cell growth in a cell viability assay.

[7] = system: MEG-01;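 also: growth inhibition of MEG-01 cells, read out by a cell viability assay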
Description: SANGER: Inhibition of human MEG-01 cell growth in a cell viability assay.

[8] = system: SW 962;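 also: growth inhibition of human SW962 cells, read out by a cell viability assay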
Description: SANGER: Inhibition of human SW962 cell growth in a cell viability assay.

[9] = system: MC116;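 also: growth inhibition of MC116 cells, read out with a cell viability assay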
Description: SANGER: Inhibition of human MC116 cell growth in a cell viability assay.

[10] = system: EW-1;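 also: growth inhibition of the human EW-1 cell line, read out by a cell viability assay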
Description: SANGER: Inhibition of human EW-1 cell growth in a cell viability assay.

[11] = system: DB
Description: SANGER: Inhibition of human DB cell growth in a cell viability assay.

[12] = system: NCI-H1581;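 also: cell growth inhibition read out by a viability assay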
Description: SANGER: Inhibition of human NCI-H1581 cell growth in a cell viability assay.

[13] = system: NOS-1;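 also: growth inhibition of the human NOS-1 cell line, read out with a cell viability assay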
Description: SANGER: Inhibition of human NOS-1 cell growth in a cell viability assay.

[14] = system: BB49-HNC;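 also: cell viability assay read-out, reported as inhibition of BB49-HNC cell growth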
Description: SANGER: Inhibition of human BB49-HNC cell growth in a cell viability assay.

[15] = system: GOTO;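 also: growth inhibition of GOTO cells, read out by a cell viability assay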
Description: SANGER: Inhibition of human GOTO cell growth in a cell viability assay.

[16] = system: NEC8;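 also: growth inhibition of human NEC8 cells, read out by a cell viability assay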
Description: SANGER: Inhibition of human NEC8 cell growth in a cell viability assay.

[17] = system: JVM-2;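 also: growth inhibition of JVM-2 cells determined by a cell viability assay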
Description: SANGER: Inhibition of human JVM-2 cell growth in a cell viability assay.

[18] = system: Mo
Description: SANGER: Inhibition of human Mo-T cell growth in a cell viability assay.

[19] = system: A704;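 also: growth inhibition of human A704 cells, read out with a cell viability assay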
Description: SANGER: Inhibition of human A704 cell growth in a cell viability assay.

[20] = system: RKO;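 also: growth inhibition of human RKO cells, read out with a cell viability assay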
Description: SANGER: Inhibition of human RKO cell growth in a cell viability assay.

[21] = system: CW-2;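 also: growth inhibition of CW-2 cells, read out by a cell viability assay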
Description: SANGER: Inhibition of human CW-2 cell growth in a cell viability assay.

[22] = system: Calu-6;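 also: growth of human Calu-6 cells, read out by a cell viability assay, IC50 marking inhibition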
Description: SANGER: Inhibition of human Calu-6 cell growth in a cell viability assay.

[23] = system: ES7;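 also: growth inhibition of cultured human ES7 cells, read out as cell viability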
Description: SANGER: Inhibition of human ES7 cell growth in a cell viability assay.

[24] = system: LS-513
Description: SANGER: Inhibition of human LS-513 cell growth in a cell viability assay.

[25] = system: SW684;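 also: growth inhibition of human SW684 cells, measured by a cell viability assay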
Description: SANGER: Inhibition of human SW684 cell growth in a cell viability assay.

[26] = system: KP-N-YS;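 also: cell viability assay measuring inhibition of cell line growth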
Description: SANGER: Inhibition of human KP-N-YS cell growth in a cell viability assay.

[27] = system: NMC-G1;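 also: growth inhibition of the NMC-G1 cell line, measured with a cell viability read-out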
Description: SANGER: Inhibition of human NMC-G1 cell growth in a cell viability assay.

[28] = system: CTB-1
Description: SANGER: Inhibition of human CTB-1 cell growth in a cell viability assay.

[29] = system: KE-37;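 also: growth inhibition of KE-37 cells, read out with a cell viability assay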
Description: SANGER: Inhibition of human KE-37 cell growth in a cell viability assay.

[30] = system: TE-8;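 also: growth inhibition of TE-8 cells, measured with a cell viability readout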
Description: SANGER: Inhibition of human TE-8 cell growth in a cell viability assay.

[31] = system: COLO-684
Description: SANGER: Inhibition of human COLO-684 cell growth in a cell viability assay.

[32] = system: HCC1187;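 also: growth inhibition of HCC1187 cells, read out with a cell viability assay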
Description: SANGER: Inhibition of human HCC1187 cell growth in a cell viability assay.

[33] = system: ES5;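 also: growth inhibition of human ES5 cells, read out by a cell viability assay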
Description: SANGER: Inhibition of human ES5 cell growth in a cell viability assay.

[34] = system: D-502MG
Description: SANGER: Inhibition of human D-502MG cell growth in a cell viability assay.

[35] = system: HDLM-2;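 also: cell viability assay measuring suppression of HDLM-2 proliferation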
Description: SANGER: Inhibition of human HDLM-2 cell growth in a cell viability assay.

[36] = system: DJM-1;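 also: growth inhibition of human DJM-1 cells, read out by a cell viability assay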
Description: SANGER: Inhibition of human DJM-1 cell growth in a cell viability assay.

[37] = system: LC-2-ad;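 also: growth inhibition of human LC-2-ad cells, read out with a cell viability assay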
Description: SANGER: Inhibition of human LC-2-ad cell growth in a cell viability assay.

[38] = system: NTERA-2-cl-D1;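 also: inhibition of cell growth, measured with a cell viability assay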
Description: SANGER: Inhibition of human NTERA-S-cl-D1 cell growth in a cell viability assay.

[39] = system: IST-SL1;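 also: growth inhibition of human IST-SL1 cells, read out with a cell viability assay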
Description: SANGER: Inhibition of human IST-SL1 cell growth in a cell viability assay.

[40] = system: TE-12;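 also: growth inhibition of TE-12 cells, read out by a cell viability assay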
Description: SANGER: Inhibition of human TE-12 cell growth in a cell viability assay.

[41] = system: HD-MY-Z;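 also: growth inhibition of HD-MY-Z cells, read out with a cell viability assay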
Description: SANGER: Inhibition of human HD-MY-Z cell growth in a cell viability assay.

[42] = system: NCI-H209;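 also: growth inhibition of human NCI-H209 cells, measured by a cell viability assay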
Description: SANGER: Inhibition of human NCI-H209 cell growth in a cell viability assay.

[43] = system: GCIY;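 also: growth inhibition of the human GCIY cell line, read out by a cell viability assay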
Description: SANGER: Inhibition of human GCIY cell growth in a cell viability assay.

[44] = system: RPMI-8226
Description: SANGER: Inhibition of human RPMI-8226 cell growth in a cell viability assay.

[45] = system: SW872;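 also: growth inhibition of SW872 cells, read out by a viability assay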
Description: SANGER: Inhibition of human SW872 cell growth in a cell viability assay.

[46] = system: EW-18;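 also: growth inhibition of EW-18 cells, read out by a cell viability assay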
Description: SANGER: Inhibition of human EW-18 cell growth in a cell viability assay.

[47] = system: D283 Med
Description: SANGER: Inhibition of human D-283MED cell growth in a cell viability assay.

[48] = system: MZ1-PC;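 also: cell viability assay measuring growth inhibition of human MZ1-PC cells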
Description: SANGER: Inhibition of human MZ1-PC cell growth in a cell viability assay.

[49] = system: NCI-H1155;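 also: cell growth inhibition measured by a viability assay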
Description: SANGER: Inhibition of human NCI-H1155 cell growth in a cell viability assay.

[50] = system: OMC-1;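 also: growth inhibition of the OMC-1 cell line, measured by a cell viability assay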
Description: SANGER: Inhibition of human OMC-1 cell growth in a cell viability assay.

[51] = system: CGTH-W-1;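 also: growth inhibition of human CGTH-W-1 cells measured by cell viability assay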
Description: SANGER: Inhibition of human CGTH-W-1 cell growth in a cell viability assay.

[52] = system: SK-N-DZ;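 also: growth inhibition of the cancer cell line, read out through a viability assay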
Description: SANGER: Inhibition of human SK-N-DZ cell growth in a cell viability assay.

[53] = system: KNS-42;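 also: growth inhibition of KNS-42 cells, read out with a cell viability assay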
Description: SANGER: Inhibition of human KNS-42 cell growth in a cell viability assay.

[54] = system: BE-13;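 also: growth inhibition of human BE-13 cells, measured with a cell viability assay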
Description: SANGER: Inhibition of human BE-13 cell growth in a cell viability assay.

[55] = system: DEL;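 also: growth inhibition of the human DEL cell line, read out with a cell viability assay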
Description: SANGER: Inhibition of human DEL cell growth in a cell viability assay.

[56] = system: EOL1;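 also: growth inhibition of EoL-1 cells, read out by a cell viability assay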
Description: SANGER: Inhibition of human EoL-1-cell cell growth in a cell viability assay.

[57] = system: KARPAS-45;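 also: inhibition of cell line growth, read out through a viability assay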
Description: SANGER: Inhibition of human KARPAS-45 cell growth in a cell viability assay.

[58] = system: CTV-1;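 also: growth inhibition of the cell line, read out with a cell viability assay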
Description: SANGER: Inhibition of human CTV-1 cell growth in a cell viability assay.

[59] = system: EW-16;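 also: growth inhibition of human EW-16 cells, read out as cell viability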
Description: SANGER: Inhibition of human EW-16 cell growth in a cell viability assay.

[60] = system: RS4-11;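 also: growth inhibition of RS4-11 cells, read out by a cell viability assay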
Description: SANGER: Inhibition of human RS4-11 cell growth in a cell viability assay.

[61] = system: NOMO-1
Description: SANGER: Inhibition of human NOMO-1 cell growth in a cell viability assay.

[62] = system: RH-1
Description: SANGER: Inhibition of human RH-1 cell growth in a cell viability assay.

CC(=O)c1c(C)c2cnc(Nc3ccc(N4CCNCC4)cn3)nc2n(C2CCCC2)c1=O [PALBOCICLIB]
IC50 [1]: > 4 µM | IC50 [2]: > 4 µM | IC50 [3]: > 4 µM | IC50 [4]: > 4 µM | IC50 [5]: 1.8 µM | IC50 [6]: 0.258 µM | IC50 [7]: > 4 µM | IC50 [8]: 0.809 µM | IC50 [9]: > 4 µM | IC50 [10]: > 4 µM | IC50 [11]: 1.07 µM | IC50 [12]: > 4 µM | IC50 [13]: > 4 µM | IC50 [14]: > 4 µM | IC50 [15]: > 4 µM | IC50 [16]: > 4 µM | IC50 [17]: > 4 µM | IC50 [18]: > 4 µM | IC50 [19]: > 4 µM | IC50 [20]: 2.38 µM | IC50 [21]: > 4 µM | IC50 [22]: > 4 µM | IC50 [23]: 0.273 µM | IC50 [24]: > 4 µM | IC50 [25]: > 4 µM | IC50 [26]: 3.62 µM | IC50 [27]: > 4 µM | IC50 [28]: 0.405 µM | IC50 [29]: 2.09 µM | IC50 [30]: 1.42 µM | IC50 [31]: > 4 µM | IC50 [32]: > 4 µM | IC50 [33]: 0.753 µM | IC50 [34]: > 4 µM | IC50 [35]: > 4 µM | IC50 [36]: > 4 µM | IC50 [37]: > 4 µM | IC50 [38]: > 4 µM | IC50 [39]: > 4 µM | IC50 [40]: > 4 µM | IC50 [41]: > 4 µM | IC50 [42]: > 4 µM | IC50 [43]: > 4 µM | IC50 [44]: 0.527 µM | IC50 [45]: 1.98 µM | IC50 [46]: > 4 µM | IC50 [47]: 2.72 µM | IC50 [48]: > 4 µM | IC50 [49]: > 4 µM | IC50 [50]: > 4 µM | IC50 [51]: 1.17 µM | IC50 [52]: > 4 µM | IC50 [53]: > 4 µM | IC50 [54]: 0.444 µM | IC50 [55]: 1.7 µM | IC50 [56]: 0.187 µM | IC50 [57]: 0.376 µM | IC50 [58]: 2.53 µM | IC50 [59]: 0.604 µM | IC50 [60]: 0.505 µM | IC50 [61]: > 4 µM | IC50 [62]: > 4 µM

Cn1c(=O)n(-c2ccc(C(C)(C)C#N)cc2)c2c3cc(-c4cnc5ccccc5c4)ccc3ncc21 [DACTOLISIB]
IC50 [1]: 0.196 µM | IC50 [2]: 0.324 µM | IC50 [3]: 0.132 µM | IC50 [4]: < 0.00781 µM | IC50 [5]: 0.0397 µM | IC50 [6]: 0.0359 µM | IC50 [7]: 0.0635 µM | IC50 [8]: 0.0268 µM | IC50 [9]: 0.0578 µM | IC50 [10]: 0.12 µM | IC50 [11]: 0.0274 µM | IC50 [12]: 0.064 µM | IC50 [13]: 0.0301 µM | IC50 [14]: 0.174 µM | IC50 [15]: 0.25 µM | IC50 [16]: 0.0672 µM | IC50 [17]: > 2 µM | IC50 [18]: 0.948 µM | IC50 [19]: 0.0556 µM | IC50 [20]: 0.0383 µM | IC50 [21]: 0.27 µM | IC50 [22]: > 2 µM | IC50 [23]: 0.0181 µM | IC50 [24]: 0.141 µM | IC50 [25]: 0.196 µM | IC50 [26]: 0.185 µM | IC50 [27]: 0.121 µM | IC50 [28]: 0.0247 µM | IC50 [29]: 0.0588 µM | IC50 [30]: 0.0665 µM | IC50 [31]: 0.0336 µM | IC50 [32]: 0.576 µM | IC50 [33]: 0.0147 µM | IC50 [34]: 0.106 µM | IC50 [35]: > 2 µM | IC50 [36]: 0.34 µM | IC50 [37]: 0.159 µM | IC50 [38]: 0.043 µM | IC50 [39]: 1.44 µM | IC50 [40]: 0.141 µM | IC50 [41]: 0.0449 µM | IC50 [42]: 0.0173 µM | IC50 [43]: 0.0507 µM | IC50 [44]: 0.0338 µM | IC50 [45]: 0.0646 µM | IC50 [46]: 0.0319 µM | IC50 [47]: 0.0496 µM | IC50 [48]: 0.206 µM | IC50 [49]: 0.0483 µM | IC50 [50]: 0.1 µM | IC50 [51]: 0.0206 µM | IC50 [52]: > 2 µM | IC50 [53]: 0.144 µM | IC50 [54]: 0.0318 µM | IC50 [55]: 0.0205 µM | IC50 [56]: 0.0139 µM | IC50 [57]: 0.0135 µM | IC50 [58]: 0.0328 µM | IC50 [59]: 0.018 µM | IC50 [60]: 0.0269 µM | IC50 [61]: 0.0459 µM | IC50 [62]: 0.0547 µM
